Experimental data as given in patent US20250263390A1, “NOVEL SUBSTITUTED 6,7-DIHYDRO-5H-BENZO[7]ANNULENE COMPOUNDS AND THEIR DERIVATIVES, PROCESSES FOR THEIR PREPARATION AND THERAPEUTIC USES THEREOF” (SANOFI, priority 2022, published 2025).

target: T1, ERα (Homo sapiens, UniProt P03372); experiment: Estrogen receptor degradation activity: breast cancer cell ERα in cell western assay; format: cell-based; conditions: MCF7 cells, 4 hours, relative to fulvestrant 0.1 μM positive control
T1 construct: host or cells: MCF7
T1 sequence (P03372 1-595): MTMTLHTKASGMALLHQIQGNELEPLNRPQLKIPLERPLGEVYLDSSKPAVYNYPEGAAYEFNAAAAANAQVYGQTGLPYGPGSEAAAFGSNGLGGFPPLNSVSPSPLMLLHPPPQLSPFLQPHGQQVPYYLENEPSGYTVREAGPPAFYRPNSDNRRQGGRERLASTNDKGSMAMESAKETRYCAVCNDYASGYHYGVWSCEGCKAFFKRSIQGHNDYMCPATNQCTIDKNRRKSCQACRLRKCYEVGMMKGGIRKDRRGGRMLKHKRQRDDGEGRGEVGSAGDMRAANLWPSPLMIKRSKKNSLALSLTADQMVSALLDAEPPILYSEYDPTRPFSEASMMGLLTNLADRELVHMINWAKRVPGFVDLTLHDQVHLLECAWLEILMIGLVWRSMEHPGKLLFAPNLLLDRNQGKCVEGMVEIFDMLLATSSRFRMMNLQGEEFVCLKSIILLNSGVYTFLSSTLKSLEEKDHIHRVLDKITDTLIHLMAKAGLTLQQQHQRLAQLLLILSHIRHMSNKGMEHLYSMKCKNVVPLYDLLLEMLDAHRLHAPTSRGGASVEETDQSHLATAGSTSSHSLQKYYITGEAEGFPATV
Procedure: Test: Estrogen Receptor Degradation Activity Said test involves measuring the in vitro degradation activity of the compounds of the Table 1a. The measurements of the degradation activities were made using a breast cancer cell ERα in cell western assay as described hereunder. MCF7 cells (ATCC) were seeded in 384 wells microplate (collagen coated) at a concentration of 10000 cells/30 μL per well in red phenol free MEM alpha medium (invitrogen) containing 5% charcoal dextran striped FBS. The following day, 9 points serial 1:5 dilution of each compound was added to the cells in 2.5p L at final concentrations ranging from 0.3-0.0000018 μM (in table 2), or 0.1 μM for fulvestrant (using as positive control). At 4 hours post compound addition the cells were fixed by adding 25 μL of formalin (final concentration 5% formalin containing 0.1% triton) for 10 minutes at room temperature and then washed twice with PBS. Then, 50 μL of LI-COR blocking buffer containing 0.1% Triton was added to plate for 30 minutes at room temperature. LI-COR blocking buffer was removed and cells were incubated overnight at cold room with 50 μL anti-ER rabbit monoclonal antibody (Thermo scientific MA1-39540) diluted at 1:1000 in LI-COR blocking buffer containing 0.1% tween-20. Wells which were treated with blocking buffer but no antibody were used as background control. Wells were washed twice with PBS (0.1% tween-20) and incubated at 37° C. for 60 minutes in LI-COR (0.1% tween-20) containing goat anti-rabbit antibody Alexa 488 (1:1000) and Syto-64 a DNA dye (2 μM final concentration). Cells were then washed 3 times in PBS and scanned in ACUMEN explorer (TTP-Labtech). Integrated intensities in the green fluorescence and red fluorescence were measured to determine the levels of ERα and DNA respectively. The degradation activity with respect to estrogen receptors in this test is given by the concentration which degrades 50% of the estrogen receptor (or IC50) in nM. The % of ERα levels decrease were determined as follows: % inhibition=100*(1−(sample−fulvestrant: DMSO−fulvestrant)).

Structure (SMILES) | % Degradation At 0.3 μM [%]
O=C(O)c1ccc2c(c1)CCCC(c1cccc(F)c1OC(F)F)=C2c1ccc(CC2CN(CCCF)C2)cc1 [Compound 1, 8-(2-(difluoromethoxy)-3-fluorophenyl)-9-(4-((1-(3-fluoropropyl)azetidin-3-yl)methyl)phenyl)-6,7-dihydro-5H-benzo[7]annulene-3-carboxylic acid] | 85
O=C(O)c1ccc2c(c1)CCCC(c1cccc3c1CCCC3)=C2c1ccc(CC2CN(CCCF)C2)cc1 [Compound 2, 9-(4-((1-(3-fluoropropyl)azetidin-3-yl)methyl)phenyl)-8-(5,6,7,8-tetrahydronaphthalen-1-yl)-6,7-dihydro-5H-benzo[7]annulene-3-carboxylic acid] | 86
O=C(O)c1ccc2c(c1)CCCC(C1CCC(CO)C1)=C2c1ccc(CC2CN(CCCF)C2)cc1 (stereo not drawn) [Compound 3, 9-(4-((1-(3-fluoropropyl)azetidin-3-yl)methyl)phenyl)-8-(3-(hydroxymethyl)cyclopentyl)-6,7-dihydro-5H-benzo[7]annulene-3-carboxylic acid] | 77
COc1c(C2=C(c3ccc(CC4CN(CCCF)C4)cc3)c3ccc(C(=O)O)cc3CCC2)cccc1C(F)(F)F [Compound 4, 9-(4-((1-(3-fluoropropyl)azetidin-3-yl)methyl)phenyl)-8-(2-methoxy-3-(trifluoromethyl)phenyl)-6,7-dihydro-5H-benzo[7]annulene-3-carboxylic acid] | 83
O=C(O)c1ccc2c(c1)CCCC(c1cccc(Cl)c1OC(F)(F)F)=C2c1ccc(CC2CN(CCCF)C2)cc1 [Compound 5, 8-(3-chloro-2-(trifluoromethoxy)phenyl)-9-(4-((1-(3-fluoropropyl)azetidin-3-yl)methyl)phenyl)-6,7-dihydro-5H-benzo[7]annulene-3-carboxylic acid] | 87
Cc1c(OC(F)(F)F)cccc1C1=C(c2ccc(CC3CN(CCCF)C3)cc2)c2ccc(C(=O)O)cc2CCC1 [Compound 6, 9-(4-((1-(3-fluoropropyl)azetidin-3-yl)methyl)phenyl)-8-(2-methyl-3-(trifluoromethoxy)phenyl)-6,7-dihydro-5H-benzo[7]annulene-3-carboxylic acid] | 90
COc1cccc(C2=C(c3ccc(CC4CN(CCCF)C4)cc3)c3ccc(C(=O)O)cc3CCC2)c1C [Compound 7, 9-(4-((1-(3-fluoropropyl)azetidin-3-yl)methyl)phenyl)-8-(3-methoxy-2-methylphenyl)-6,7-dihydro-5H-benzo[7]annulene-3-carboxylic acid] | 93
COc1cccc(C2=C(c3ccc(CC4CN(CCCF)C4)cc3)c3ccc(C(=O)O)cc3CCC2)c1C(F)F [Compound 8, 8-(2-(difluoromethyl)-3-methoxyphenyl)-9-(4-((1-(3-fluoropropyl)azetidin-3-yl)methyl)phenyl)-6,7-dihydro-5H-benzo[7]annulene-3-carboxylic acid] | 89
O=C(O)c1ccc2c(c1)CCCC(c1cccc3c1OCCC3)=C2c1ccc(CC2CN(CCCF)C2)cc1 [Compound 9, 8-(chroman-8-yl)-9-(4-((1-(3-fluoropropyl)azetidin-3-yl)methyl)phenyl)-6,7-dihydro-5H-benzo[7]annulene-3-carboxylic acid] | 88
CC1(C)CCC(C2=C(c3ncc(CC4CN(CCCF)C4)cc3F)c3ccc(C(=O)O)cc3CCC2)CC1 [Compound 10, 8-(4,4-dimethylcyclohexyl)-9-(3-fluoro-5-((1-(3-fluoropropyl)azetidin-3-yl)methyl)pyridin-2-yl)-6,7-dihydro-5H-benzo[7]annulene-3-carboxylic acid] | 83
COc1cccc(C2=C(c3ccc(CC4CN(CCCF)C4)cc3)c3ccc(C(=O)O)cc3CCC2)c1C(F)(F)F [Compound 11, 9-(4-((1-(3-fluoropropyl)azetidin-3-yl)methyl)phenyl)-8-(3-methoxy-2-(trifluoromethyl)phenyl)-6,7-dihydro-5H-benzo[7]annulene-3-carboxylic acid] | 86
O=C(O)c1ccc2c(c1)CCCC(c1cccc3c1CCCO3)=C2c1ccc(CC2CN(CCCF)C2)cc1 [Compound 12, 8-(chroman-5-yl)-9-(4-((1-(3-fluoropropyl)azetidin-3-yl)methyl)phenyl)-6,7-dihydro-5H-benzo[7]annulene-3-carboxylic acid] | 86
CC1(C)CCC(C2=C(c3ncc(CC4CN(CCC(F)F)C4)cc3F)c3ccc(C(=O)O)cc3CCC2)CC1 [Compound 13, 9-(5-((1-(3,3-difluoropropyl)azetidin-3-yl)methyl)-3-fluoropyridin-2-yl)-8-(4,4-dimethylcyclohexyl)-6,7-dihydro-5H-benzo[7]annulene-3-carboxylic acid] | 64
Cc1c(OC(F)F)cccc1C1=C(c2ccc(CC3CN(CCCF)C3)cc2)c2ccc(C(=O)O)cc2CCC1 [Compound 14, 8-(3-(difluoromethoxy)-2-methylphenyl)-9-(4-((1-(3-fluoropropyl)azetidin-3-yl)methyl)phenyl)-6,7-dihydro-5H-benzo[7]annulene-3-carboxylic acid] | 93
O=C(O)C(F)(F)F.O=C(O)c1ccc2c(c1)CCCC(CCCO)=C2c1ccc(CC2CN(CCCF)C2)cc1 [Compound 15, 9-(4-((1-(3-fluoropropyl)azetidin-3-yl)methyl)phenyl)-8-(3-hydroxypropyl)-6,7-dihydro-5H-benzo[7]annulene-3-carboxylic acid, 2,2,2-trifluoroacetic acid] | 100
COc1cc(C(F)(F)F)ccc1C1=C(c2ccc(CC3CN(CCCF)C3)cc2)c2ccc(C(=O)O)cc2CCC1.Cl [Compound 16, 9-(4-((1-(3-fluoropropyl)azetidin-3-yl)methyl)phenyl)-8-(2-methoxy-4-(trifluoromethyl)phenyl)-6,7-dihydro-5H-benzo[7]annulene-3-carboxylic acid, hydrochloride] | 92
COc1ccc(C2=C(c3ccc(CC4CN(CCCF)C4)cc3)c3ccc(C(=O)O)cc3CCC2)cc1C(F)(F)F.Cl [Compound 17, 9-(4-((1-(3-fluoropropyl)azetidin-3-yl)methyl)phenyl)-8-(4-methoxy-3-(trifluoromethyl)phenyl)-6,7-dihydro-5H-benzo[7]annulene-3-carboxylic acid, hydrochloride] | 92
Cc1ccc(C(F)(F)F)cc1C1=C(c2ccc(CC3CN(CCCF)C3)cc2)c2ccc(C(=O)O)cc2CCC1 [Compound 18, 9-(4-((1-(3-fluoropropyl)azetidin-3-yl)methyl)phenyl)-8-(2-methyl-5-(trifluoromethyl)phenyl)-6,7-dihydro-5H-benzo[7]annulene-3-carboxylic acid] | 78
COc1cc(C2=C(c3ccc(CC4CN(CCCF)C4)cc3)c3ccc(C(=O)O)cc3CCC2)ccc1C(F)(F)F.Cl [Compound 19, 9-(4-((1-(3-fluoropropyl)azetidin-3-yl)methyl)phenyl)-8-(3-methoxy-4-(trifluoromethyl)phenyl)-6,7-dihydro-5H-benzo[7]annulene-3-carboxylic acid, hydrochloride] | 93
Cc1ccc(C(F)(F)F)c(C2=C(c3ccc(CC4CN(CCCF)C4)cc3)c3ccc(C(=O)O)cc3CCC2)c1.Cl [Compound 20, 9-(4-((1-(3-fluoropropyl)azetidin-3-yl)methyl)phenyl)-8-(5-methyl-2-(trifluoromethyl)phenyl)-6,7-dihydro-5H-benzo[7]annulene-3-carboxylic acid, hydrochloride] | 91
O=C(O)c1ccc2c(c1)CCCC(C1CC(CO)C1)=C2c1ccc(CC2CN(CCCF)C2)cc1 (stereo not drawn) [Compound 21, 9-(4-((1-(3-fluoropropyl)azetidin-3-yl)methyl)phenyl)-8-(3-(hydroxymethyl)cyclobutyl)-6,7-dihydro-5H-benzo[7]annulene-3-carboxylic acid] | 100
